Paper PMC2034157, “CRC/EORTC/NCI Joint Formulation Working Party: experiences in the formulation of investigational cytotoxic drugs” (British Journal of Cancer, 1995)
In brackets after ≈: the same amount, converted by molar mass. Where two headings read alike, the source gives them in different places.

Experiments:
[1] = test system: colon 26; test: Anti-tumour activity against colon 26 tumour; type: in vivo
Text: (§1) Brsh Jowbnl d Cancer ( ) 72, 210-218 ? […] Figwe 3 Chemical stnruu of disulphonated aluminium phthalocyamne.

[2] = physchem
[3] = test system: B16 melanoma; test: Anti-tumour activity against B16 melanoma; type: in vivo
Text: as §1

[4] = test system: DNA polymerase-alpha; design: method as in Bucknall et al., 1973; Taguchi et al., 1978; conditions: ref Bucknall et al., 1973; Taguchi et al., 1978; cited from earlier work
[5] = physchem; remark: listed apart in the source
Text: as §1

[6] = Stability of formulated product (shelf-life, reconstituted solution); conditions: for pH of reconstituted solution: lyophilised product reconstituted with water
Text: as §1

[7] = Solution stability / decomposition studies
Text: (§2) Figwe 3 Chemical stnruu of disulphonated aluminium phthalocyamne.

[8] = test system: acid or alkaline phosphatase; test: Incubation of prodrug with phosphatase; type: biochemical; conditions: incubated with acid or alkaline phosphatase
Text: as §1

[9] = Aqueous solubility; conditions: for aqueous solubility (in words): water / aqueous solution
[10] = In vivo anti-tumour activity
Text: as §1

[11] = test system: solid tumour models; test: Activity in solid tumour models; type: in vivo; conditions: several solid tumour models
Text: as §1

[12] = cited from earlier work
[13] = design: method as in de Vries et al., 1993; conditions: aqueous solution; ref de Vries et al., 1993; cited from earlier work
[14] = Clinical pharmacokinetics in phase I trial; type: in vivo, human
Text: as §1

[15] = Preclinical toxicology studies
Text: as §2

[16] = test system: gliomas; design: method as in Stevens and Newlands, 1993; conditions: daily for five consecutive days; ref Stevens and Newlands, 1993; cited from earlier work
[17] = Murine anti-tumour tests; type: in vivo
Text: as §1

[18] = Phase I/II clinical trials: toxicity; type: in vivo, human; conditions: phase I trial
Text: as §1

[19] = test system: MX-1 mammary carcinoma; design: method as in Waud et al., 1992; conditions: xenograft in athymic mice; ref Waud et al., 1992; cited from earlier work
[20] = test system: NCI-H82; design: method as in Waud et al., 1992; conditions: xenograft in athymic mice; ref Waud et al., 1992; cited from earlier work
[21] = test system: LOX amelanotic melanoma; design: method as in Waud et al., 1992; conditions: xenograft in athymic mice; ref Waud et al., 1992; cited from earlier work
[22] = cited from earlier work; for maximum tolerated dose (MTD): ref Judson et al., 1989
[23] = In vitro anti-tumour activity; type: cell-based
Text: as §1

[24] = Preliminary murine toxicological study; type: in vivo; conditions: PET solvent system formulation
Text: as §1

[25] = phase I studies; ref Sessa et al., 1991; cited from earlier work
[26] = test system: P388 leukaemia; test: Anti-tumour activity against P388 leukaemia; type: in vivo
Text: as §1

[27] = test system: L1210 leukaemia; test: Anti-tumour activity against L1210 leukaemia; type: in vivo
Text: as §1

[28] = data from the drug's discoverers; ref Pettit et al., 1982; cited from earlier work
[29] = Compatibility and adsorption studies with administration sets; type: physicochemical
Text: as §1

[30] = design: method as in Torres-Labandeira et al., 1991; conditions: 40% aqueous solution of HPCD; ref Torres-Labandeira et al., 1991; cited from earlier work

## C[C@@]1(CO)[C@H](O)CC[C@@]2(C)[C@H]1CC[C@H]1C[C@@H]3C[C@@]12CC[C@]3(O)CO [Aphidicolin, reference compound]
[1]
  anti-tumour activity: observed
[2]
  solubility: ~250 µg/mL (≈ 0.739 mM)
[3]
  anti-tumour activity: observed
[4]
  effect on DNA polymerase: inhibit

## CCN(CC)c1ccc2cc(C(=O)Nc3ccc4[nH]c(C(=O)N5C[C@@H](CCl)c6c5cc(OC(=O)Nc5ccccc5)c5[nH]cc(C)c65)cc4c3)oc2c1 [Carzelesin]
[5]
  solubility in common pharmaceutically acceptable solvents: very low
[6]; stored at -30C, PEG 400/polysorbate 80/ethanol
  time drug is stable in PET vehicle: at least 1 year

## CO[C@@H](/C(C)=C/C=C/C(C)=C/c1coc(C)n1)[C@@H](C)[C@@H]1C[C@H](O)[C@@]2(C)O[C@@H]2/C=C/[C@@H](C)[C@H]2C[C@H](CC(=O)O2)C[C@@H]2O[C@H]2C(=O)O1 [Rhizoxin]
[2]
  solubility: 12 µg/mL (≈ 0.0192 mM)
[5]; t-butanol, t-butanol-water
  solubility in t-butanol and t-butanol-water mixtures: excellent
[7]; pH 5.6
  increase in degradation in presence of light vs protected from light: approximately 2 -fold

## COc1ccc(/C=C\c2cc(OC)c(OC)c(OC)c2)cc1OP(=O)(O)O [phosphate ester]
[8]
  release of parent molecule: released the parent mokcule
[9]
  aqueous solubility (in words): adequate
[7]; aqueous solutions
  stability in aqueous solutions (in words): adequate
[10]
  in vivo activity: inactive

## CC(C)NC(=O)OCc1c(COC(=O)NC(C)C)c(-c2ccc(Cl)c(Cl)c2)n2c1CCC2 [NSC-278214, reference compound]
[11]
  anti-tumour activity: activity
[12]; in 2 h, 10% fat emulsion (Intralipid), 0.7 mg ml-1, 1% DMA, 5% Cremophor EL, ref El-Sayed and Repta 1983
  drug decomposed: about 10%
[9]
  aqueous solubility (in words): negligible
[7]; 66% aqueous acetone at 25 C
  half-life: around 5 mi

## Cn1c(/C=C/CO)c(CO)c2c1C(=O)C=C(N1CC1)C2=O [E.O.9]
[2]
  solubility: 200 to 500 µg/mL (≈ 0.694 to 1.73 mM)
[13]
  pH of maximum stability: around 9.5
[9]
  aqueous solubility (in words): lmited
[6]; 0.5 mg ml-1 in 0.9% sodium chloride, room temperature
  time reconstituted solution is stable: at least 24 h

## Cn1nnc2c(C(N)=O)ncn2c1=O [Temozolomide]
[14]; human, in vivo, patients, 200 mg m2, oral vs i.v., read-out: bioavailability of oral formulation
  bioavailability: ~100%
[14]; oral formulation, dose escalations
  dose dependency in the pharmacokinetics: no evidence of dose dependency
[14]; patients, oral
  absorption of oral formulation: rapid
[15]; in vivo
  toxicity relative to mitozolomide: ess toxi
[16]
  activity against gliomas: evident
[5]; DMSO
  solubility in DMSO relative to mitozolomide: less soluble
[17]
  potency relative to mitozolomide: less potent

## COc1ccc(O)cc1 [4-Hydroxyanisole]
[18]; intravenous, ethanol vehicle
  toxicity observed: Hepatotoxicity was observed

## CNC(=O)OCc1nc(SC)n(C)c1COC(=O)NC.Cl [Carmethizole hydrochloride, carmethizole hydrochloride]
[15]; preclinical toxicology studies
  toxicity observed: signifiant cardiotoxicity
[19]
  anti-tumour activity: active
[20]
  anti-tumour activity: active
[21]
  anti-tumour activity: active
[9]; hydrochloride salt
  solubility of the hydrochloride salt: greater than 500 mg ml- 1
[7]; about pH 1 or lower
  pH of maximal stability: ~1
[6]; freeze-dried product reconstituted with water for injection, solution pH 2.8
  teA (time to 10% decomposition): ~5.4 h
[6]
  pH of reconstituted solution: 2.8

## CCCCCCCCCCCCCCCCCCOCC1(COP(=O)([O-])OCC[N+](C)(C)C)CCCO1 (centres unmarked) [SRI 62-834]
[15]; simple aqueous formulations
  local tolerance of simple aqueous formulations: irritation at the site of injection
[9]; at 20C
  solubility in aqueous systems: 50 % (w/ v)
[6]; Intralipid formulation
  time formulation is chemically and physically stable: 3 months

## ClCC[N+]12CC[N+](CCCl)(CC1)C2.O=C([O-])/C=C\C(=O)O.O=C([O-])/C=C\C(=O)O [Dabis maleate, 1,4-bis (2'-chloroethyl)-1,4-diazabicyclo-[2.2.1] heptane dimaleate]
[22]; 6 h infusion for 6 weeks followed by 3 week drug vacation, ref Verweij et al., 1992
  recommended phase II dose: 500 mg m2 week-'
[22]; once every 3 weeks, ref van der Burg et al., 1991
  recommended dose for phase II trials: 750 mg m-2
[22]; phase I, once every 3 weeks, ref van der Burg et al., 1991
  dose-limiting toxicity: neurotoxicity
[22]; prolonged infusion, ref Verweij et al., 1992
  toxicity of prolonged infusion: neurotoxicity consisting of parasthesia and ataxia

## COc1ccc(/C=C\c2cc(OC)c(OC)c(OC)c2)cc1O [Combretastatin A4]
[23]
  in vitro anti-tumour activity: excellent
[24]
  local tolerance: severe irritation at the injection site
[10]
  in vivo activity: no significant

## C[C@@]1(CO)[C@H](O)CC[C@@]2(C)[C@H]1CC[C@H]1C[C@@H]3C[C@@]12CC[C@]3(O)COC(=O)CN.Cl [aphidicolin glycinate]
[3]
  anti-tumour activity: active
[22]; 1 h infusion for five consecutive days every 3 weeks, ref Sessa et al., 1991
  dose at which toxicity was dose limiting: 2250 mg m-2
[22]; 24 h infusion every 3 weeks, ref Sessa et al., 1991
  dose at which toxicity was dose limiting: 4500 mg m-2
[22]; both phase I studies, ref Sessa et al., 1991
  dose-limiting toxicity: Local toxicity
[25]
  pharmacologically active levels: had not been achieved
[26]
  anti-tumour activity: active
[9]; hydrochloride salt
  solubility of hydrochloride salt of the glycine amino group: greater than 100 mgnml'
[7]; pH 2.0-9.0 at 40-C
  pH of maximal stability: 4.5
[6]; 1 mg ml-1 in 5% dextrose or 0.9% sodium chloride injection, HPLC
  time diluted solution is stable: more than 24 h
[6]; 100 mg ml-1 in water for injection
  time reconstituted solution is stable: at least 24 h

## NC(=O)c1ncn2c(=O)n(CCCl)nnc12 [Mitozolomide, mitozolomide, reference compound]
[22]; phase I and phase II clinical trials
  toxicity for which trials were terminated: unpredictable throm- bocYtopenia

## CN(CO)c1nc(N(C)CO)nc(N(C)CO)n1 [Trimelamol, N2,N4,N6-trihydroxymethyl-N2,N4,N6-trimethylmelamine]
[1]
  anti-tumour activity: active
[2]; water
  solubility: 10000 µg/mL (≈ 38.7 mM)
[27]
  anti-tumour activity: active
[3]
  anti-tumour activity: active
[22]; single administration
  maximum tolerated dose (MTD): 2400 mgm-2
[22]; thrice-daily schedule
  maximum tolerated dose (MTD): 1000 mg m2
[26]
  anti-tumour activity: active
[5]; 95% ethanol
  solubility: ~45 mg/mL (≈ 174 mM)
[5]; DMA
  solubility: ~375 mg/mL (≈ 1450 mM)
[5]; propylene glycol
  solubility: ~15 mg/mL (≈ 58.1 mM)
[12]; 50% aqueous PEG 3400, 30 mg ml-1, not further diluted, ref Gibson et al. (1990)
  t/2 of reconstituted freeze-dried formulation: 46.3 h
[7]; HPLC, 25C, pH 3-12.5
  pH of maximum stability: 10-11
[7]; buffer, pH 10
  half-life: > 1800 min

## CCC/C=C/C=C/C(=O)O[C@H]1/C(=C/C(=O)OC)C[C@H]2C[C@H]([C@@H](C)O)OC(=O)C[C@H](O)C[C@@H]3C[C@H](OC(C)=O)C(C)(C)[C@](O)(C[C@@H]4C/C(=C/C(=O)OC)C[C@H](/C=C/C(C)(C)[C@]1(O)O2)O4)O3 [bryostatin 1]
[18]; ethanol solution
  local toxicity thought to be associated with high ethanol concentration: phlebitis
[18]; with or without in-line dilution
  major toxicity: general myalgia
[28]
  aqueous solubility (in words): lmited
[5]; ethanolic solutions at predicted formulation concentrations
  percentage of ethanol below which the drug precipitated: below 50%
[29]; PTFE-lined sets, ethanol concentration below 50%
  adsorption onto administration set surfaces: significant
[29]; plastic not PTFE-lined (e.g. PVC)
  adsorption onto administration set surfaces: exten- sive adsorption

## CS(=O)(=O)OCCN(CCCl)c1ccc(C(=O)N[C@@H](CCC(=O)O)C(=O)O)cc1 [Springer prodrug]
[6]; lyophilised material at 20-25C
  time until degradation apparent: ≤ 2 weeks
[6]; stored at 4C
  time lyophilised material is stable: up to 1 year

## O=C1N[C@H]2[C@H](O)[C@H](O)[C@@H](O)[C@H](O)[C@@H]2c2cc3c(c(O)c21)OCO3 [Pancratistatin]
[30]
  solubility in hydroxypropyl-beta-cyclodextrin solution: approximately 1.2 mg ml-'
[5]; aqueous solubilisation with complexing agent
  solubility: 1 mg/mL (≈ 3.07 mM)
[5]; solubility in a range of solvents
  solubility: < 0.4 mg/mL
[6]
  pH of reconstituted solution: 6.3
